The species entered for assay [1] is Cavia porcellus. Put plainly: The compound was tested for the agonistic activity of contractile activities of Guinea pig ileum. Format: functional.
For assay [2], the species on record is Cavia porcellus. The assay can be described thus: The compound was tested for the agonistic activity of amylase secretion by Guinea pig acini. Format: functional.

The values below come from ChEMBL document CHEMBL1124398, “Full agonists of CCK8 containing a nonhydrolyzable sulfated tyrosine residue” (J Med Chem, 1989).

Starred links: 1 amine or outer side, 2 acyl side, 3 side chain; linkers in the order of their positions; H or OH if unused. Non-standard residues stand in square brackets, D forms with d. Residues, ends and D or L forms follow the SMILES beside them. Phe(4-CH2SO3H) = N[C@@H](Cc1ccc(CS(=O)(=O)O)cc1)C(=O)O; X1 = O=C([C@@H](Cc1ccc(CS(=O)(=O)O)cc1)N[*:1])[*:2]; Nle = CCCC[C@H](N)C(=O)O

For `CCCC[C@H](NC(=O)[C@H](Cc1c[nH]c2ccccc12)NC(=O)CNC(=O)[C@H](CCCC)NC(=O)[C@@H](Cc1ccc(OS(=O)(=O)O)cc1)NC(=O)OC(C)(C)C)C(=O)N[C@@H](CC(=O)O)C(=O)N[C@@H](Cc1ccccc1)C(N)=O`, the results for the EC50 in assay [1] and in assay [2] were 28 nM and 4.5 nM, respectively.
`CCCC[C@H](NC(=O)[C@H](Cc1ccc(OS(=O)(=O)O)cc1)NC(=O)OC(C)(C)C)C(=O)NCC(=O)N[C@@H](Cc1c[nH]c2ccccc12)C(=O)N[C@@H](CCCC)C(=O)N[C@@H](CC(=O)O)C(=O)N[C@@H](Cc1ccccc1)C(N)=O` returned an EC50 in assay [2] of 0.28 nM.
In the case of `CCCC[C@H](NC(=O)[C@H](Cc1c[nH]c2ccccc12)NC(=O)CNC(=O)[C@H](CCCC)NC(=O)[C@@H](Cc1ccc(CS(=O)(=O)O)cc1)NC(C)=O)C(=O)N[C@@H](CC(=O)O)C(=O)N[C@@H](Cc1ccccc1)C(N)=O` (Ac-[X1][Nle]GW[Nle]DF-NH2), the EC50 in assay [1] was 17 nM; in assay [2] it was 1.6 nM.
For `CSCC[C@H](NC(=O)[C@H](Cc1ccc(OS(=O)(=O)O)cc1)NC(=O)[C@@H](N)CC(=O)O)C(=O)NCC(=O)N[C@@H](Cc1c[nH]c2ccccc12)C(=O)N[C@@H](CCSC)C(=O)N[C@@H](CC(=O)O)C(=O)N[C@@H](Cc1ccccc1)C(N)=O` [SINCALIDE], the EC50 in assay [2] turned out to be 0.1 nM.
Consider `CCCC[C@H](NC(=O)[C@H](Cc1ccc(CS(=O)(=O)O)cc1)NC(C)=O)C(=O)NCC(=O)N[C@@H](Cc1c[nH]c2ccccc12)C(=O)N[C@@H](CCCC)C(=O)N[C@@H](CC(=O)O)C(=O)N[C@@H](Cc1ccccc1)C(N)=O` (Ac-[Phe(4-CH2SO3H)][Nle]GW[Nle]DF-NH2), for which the EC50 in assay [1] was determined as 3.8 nM; in assay [2], 0.33 nM.

As a reminder, the EC50 is the concentration giving half of the maximal effect. Read a high EC50 as a less potent agent.
